Experimental findings from paper PMC3429506, “Screening for Novel LRRK2 Inhibitors Using a High-Throughput TR-FRET Cellular Assay for LRRK2 Ser935 Phosphorylation” (PLoS ONE, 2012) are described below.

Holding throughout (type): cell-based
The target in experiment [1] is T1, LRRK2 wild-type (Homo sapiens, UniProt Q5S007). Nature of the experiment: TR-FRET cellular assay for LRRK2 Ser935 phosphorylation, U-2 OS cells, BacMam LRRK2-GFP wild-type. The arrangement: This high-throughput assay utilizes cells expressing full-length human LRRK2 with a C-terminal GFP tag (LRRK2-GFP); host or cells: U-2 OS cells transduced with BacMam. The method, then:
(§1) U-2 OS cells are maintained in growth medium (McCoy’s 5A supplemented with 10% dialyzed FBS (dFBS), 10 mM HEPES, 0.1 mM NEAA, 1 mM Sodium Pyruvate, and 100 U/mL Penicillin/100 µg/mL Streptomycin). HEK293T cells are maintained in DMEM with 10% dFBS, 10 mM HEPES, 0.1 mM NEAA and 100 U/mL Penicillin/100 µg/mL Streptomycin. SH-SY5Y cells are maintained in DMEM/F-12 medium supplemented with 10% dFBS and 100 U/mL Penicillin/100 µg/mL Streptomycin. […] GIBCO® human neural stem cells (hNSCs) were propagated as an adherent culture in StemPro® NSC SFM according to the manufacturer’s recommended protocol (Life Technologies). For BacMam transduction of U-2 OS and HEK293T, cells were harvested, mixed with various amounts of BacMam LRRK2-GFP reagent (v/v) and plated onto 6-well plates. […] Cells were assayed in 384-well format (∼20,000 cells/well) 48 hours post-transduction as above.
(§2) Transduced cells in the 384-well assay plate were incubated with indicated inhibitors (5X, 5 µL/well) for 60 to 90 minutes. During this time, 6 X lysis buffer (Life Technologies) was supplemented with 30 nM Tb-labeled anti-LRRK2 pSer935 antibody and both protease and phosphatase inhibitor cocktails (Sigma). The complete 6 X lysis buffer was added to each well (5 µL/well) and the plates were incubated at room temperature in the dark for 2 hours. […] A sigmoidal dose-response equation with varying slope was used to fit the data and generate IC50 values. Z′-factor values were calculated as: Z′-factor = 1 - [(3 × stdevno virus +3 × stdevmaxvirus)/(avgmaxvirus – avgno-virus)]. The IC50 values reported in Table 1 are the averaged numbers from three independent experiments.
(In general: TR-FRET usually uses a lanthanide donor and a delayed reading to cut background.)

Experiment [2] concerns the target T1, LRRK2 wild-type. Kind of experiment: TR-FRET cellular assay for LRRK2 Ser935 phosphorylation, SH-SY5Y cells, BacMam LRRK2-GFP wild-type. The arrangement: This high-throughput assay utilizes cells expressing full-length human LRRK2 with a C-terminal GFP tag (LRRK2-GFP); host or cells: SH-SY5Y cells transduced with BacMam. As to the method: as §1, §2
The target of experiment [3] is T2, LRRK2 G2019S (Homo sapiens, UniProt Q5S007, G2019S). Kind of experiment: TR-FRET cellular assay for LRRK2 Ser935 phosphorylation, SH-SY5Y cells, BacMam LRRK2-GFP G2019S (incl. Tocriscreen Mini library screen and follow-up). More on the design: This high-throughput assay utilizes cells expressing full-length human LRRK2 with a C-terminal GFP tag (LRRK2-GFP); host or cells: SH-SY5Y cells transduced with BacMam.

Experiment [4] has as its target T2, LRRK2 G2019S. Kind of experiment: TR-FRET cellular assay for LRRK2 Ser935 phosphorylation, U-2 OS cells, BacMam LRRK2-GFP G2019S. More on the design: This high-throughput assay utilizes cells expressing full-length human LRRK2 with a C-terminal GFP tag (LRRK2-GFP); host or cells: U-2 OS, SH-SY5Y, HEK293T cells or human neural stem cells transduced with BacMam. The method, then: as §1, §2

Experiment [5] addresses T2, LRRK2 G2019S. Kind of experiment: TR-FRET cellular assay for LRRK2 Ser935 phosphorylation, human neural stem cells, BacMam LRRK2-GFP G2019S. More on the design: This high-throughput assay utilizes cells expressing full-length human LRRK2 with a C-terminal GFP tag (LRRK2-GFP); host or cells: U-2 OS, SH-SY5Y, HEK293T cells or human neural stem cells transduced with BacMam. The conditions noted are these: 10% BacMam G2019S, 90 min, Figure 4, read-out: IC50, inhibition of G2019S Ser935 phosphorylation via TR-FRET. The method, then: as §1
Transduced cells in the 384-well assay plate were incubated with indicated inhibitors (5X, 5 µL/well) for 60 to 90 minutes. During this time, 6 X lysis buffer (Life Technologies) was supplemented with 30 nM Tb-labeled anti-LRRK2 pSer935 antibody and both protease and phosphatase inhibitor cocktails (Sigma). […] Z′-factor values were calculated as: Z′-factor = 1 - [(3 × stdevno virus +3 × stdevmaxvirus)/(avgmaxvirus – avgno-virus)]. […]

Setting [6] is: WT, +/- SD, three independent experiments, * = partial inhibition, read-out: IC50, TR-FRET cell-based assay for Ser935 phosphorylation of LRRK2.

T1 sequence (Q5S007 whole entry): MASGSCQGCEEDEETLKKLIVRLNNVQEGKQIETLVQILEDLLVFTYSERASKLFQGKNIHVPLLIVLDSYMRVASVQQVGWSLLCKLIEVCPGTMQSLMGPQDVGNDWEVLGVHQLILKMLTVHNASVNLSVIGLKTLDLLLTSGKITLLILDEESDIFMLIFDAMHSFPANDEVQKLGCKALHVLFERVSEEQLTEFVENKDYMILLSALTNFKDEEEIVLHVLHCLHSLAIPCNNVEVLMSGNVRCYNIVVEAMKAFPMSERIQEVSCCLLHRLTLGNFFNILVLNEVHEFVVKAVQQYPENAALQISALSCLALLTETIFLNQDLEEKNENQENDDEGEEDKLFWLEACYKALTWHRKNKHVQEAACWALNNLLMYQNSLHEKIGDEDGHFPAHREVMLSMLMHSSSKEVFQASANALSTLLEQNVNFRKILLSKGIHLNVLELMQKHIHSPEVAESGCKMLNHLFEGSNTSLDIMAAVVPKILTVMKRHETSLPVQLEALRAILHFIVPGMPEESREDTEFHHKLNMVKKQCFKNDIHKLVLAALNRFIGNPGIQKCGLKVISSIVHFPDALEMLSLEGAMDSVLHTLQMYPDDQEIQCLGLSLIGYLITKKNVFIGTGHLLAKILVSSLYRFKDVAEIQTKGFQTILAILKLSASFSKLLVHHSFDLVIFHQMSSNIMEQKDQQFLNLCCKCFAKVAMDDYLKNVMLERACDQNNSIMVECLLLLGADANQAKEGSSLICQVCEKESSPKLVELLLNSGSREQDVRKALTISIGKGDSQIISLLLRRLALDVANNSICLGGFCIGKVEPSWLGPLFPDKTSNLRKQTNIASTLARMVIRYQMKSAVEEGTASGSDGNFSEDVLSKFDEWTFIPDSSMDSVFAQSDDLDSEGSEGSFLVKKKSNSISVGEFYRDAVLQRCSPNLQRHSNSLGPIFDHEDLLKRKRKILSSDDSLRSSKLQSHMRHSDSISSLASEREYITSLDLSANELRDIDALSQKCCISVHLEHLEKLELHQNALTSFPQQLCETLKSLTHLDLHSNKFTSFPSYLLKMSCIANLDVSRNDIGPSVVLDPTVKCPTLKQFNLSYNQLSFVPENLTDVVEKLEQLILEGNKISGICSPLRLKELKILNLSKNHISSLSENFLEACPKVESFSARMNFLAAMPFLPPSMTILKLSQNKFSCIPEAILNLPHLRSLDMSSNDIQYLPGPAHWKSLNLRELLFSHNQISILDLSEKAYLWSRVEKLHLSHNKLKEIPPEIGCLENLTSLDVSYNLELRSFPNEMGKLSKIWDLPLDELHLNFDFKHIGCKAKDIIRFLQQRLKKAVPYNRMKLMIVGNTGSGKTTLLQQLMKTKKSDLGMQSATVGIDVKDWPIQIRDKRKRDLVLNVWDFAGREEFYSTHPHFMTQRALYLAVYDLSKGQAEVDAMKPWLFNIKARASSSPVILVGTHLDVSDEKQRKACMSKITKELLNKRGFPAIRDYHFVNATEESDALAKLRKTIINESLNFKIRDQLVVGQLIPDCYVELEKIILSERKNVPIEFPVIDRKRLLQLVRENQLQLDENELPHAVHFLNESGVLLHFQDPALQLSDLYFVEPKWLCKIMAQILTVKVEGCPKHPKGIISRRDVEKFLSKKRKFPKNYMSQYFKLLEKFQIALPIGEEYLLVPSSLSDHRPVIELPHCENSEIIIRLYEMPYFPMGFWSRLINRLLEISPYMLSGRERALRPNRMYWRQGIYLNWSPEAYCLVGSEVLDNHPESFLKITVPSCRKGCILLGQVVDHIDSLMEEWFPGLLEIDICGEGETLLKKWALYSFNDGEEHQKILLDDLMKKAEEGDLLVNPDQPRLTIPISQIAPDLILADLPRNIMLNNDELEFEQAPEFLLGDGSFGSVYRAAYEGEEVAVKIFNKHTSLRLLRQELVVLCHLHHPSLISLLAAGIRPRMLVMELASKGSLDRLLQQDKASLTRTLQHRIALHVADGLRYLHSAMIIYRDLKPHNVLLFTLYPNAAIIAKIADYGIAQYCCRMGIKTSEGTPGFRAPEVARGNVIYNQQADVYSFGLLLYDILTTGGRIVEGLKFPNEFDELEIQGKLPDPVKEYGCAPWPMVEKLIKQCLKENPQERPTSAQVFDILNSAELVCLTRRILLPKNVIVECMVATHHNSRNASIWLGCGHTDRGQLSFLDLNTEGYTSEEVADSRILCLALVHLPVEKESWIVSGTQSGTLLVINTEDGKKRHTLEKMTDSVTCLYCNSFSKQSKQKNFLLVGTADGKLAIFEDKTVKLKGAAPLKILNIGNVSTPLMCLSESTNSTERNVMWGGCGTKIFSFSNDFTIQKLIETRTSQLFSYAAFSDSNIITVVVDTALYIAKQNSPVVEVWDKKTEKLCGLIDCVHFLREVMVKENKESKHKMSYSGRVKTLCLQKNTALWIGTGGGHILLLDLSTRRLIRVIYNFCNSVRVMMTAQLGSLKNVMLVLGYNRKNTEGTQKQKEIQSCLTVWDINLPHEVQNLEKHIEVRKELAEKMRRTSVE
T2 sequence (Q5S007 whole entry G2019S): as the sequence (Q5S007 whole entry) above, with G2019S counted along it

For the compound `COc1cc(C(=O)N2CCC(N3CCN(C)CC3)CC2)ccc1Nc1ncc2c(n1)N(C)c1ccccc1C(=O)N2C` [LRRK2-IN-1], the IC50 in experiment [1] (20% BacMam wild-type, 90 min, Figure 2B, read-out: IC50, inhibition of TR-FRET signal (Ser935 phosphorylation)) was determined as 80 nM; in experiment [1] (setting [6]) it was 90 nM; in experiment [2] (25% BacMam wild-type, 90 min, Figure 3C, read-out: IC50, inhibition of TR-FRET signal (Ser935 phosphorylation)), 170 nM; in experiment [2] (setting [6]) it was 200 nM; in experiment [3] (SH-SY5Y, 25% BacMam G2019S, 90 min, Figure 3C, read-out: IC50, inhibition of TR-FRET signal (Ser935 phosphorylation)), 40 nM; in experiment [3] (SH-SY5Y, G2019S, +/- SD, three independent experiments, * = partial inhibition, read-out: IC50, TR-FRET cell-based assay for Ser935 phosphorylation of LRRK2) it was 60 nM. In addition, the IC50 in experiment [3] (cryopreserved pretransduced SH-SY5Y cells, 25% BacMam G2019S, 90 min, Figure S3, read-out: IC50 using cryopreserved cells) was approximately 40 nM; in experiment [3] (dose-response follow-up, SH-SY5Y G2019S, three independent experiments, read-out: Cellular TR-FRET Assay IC50 +/-SD), 70 nM; in experiment [4] (20% BacMam G2019S, 90 min, Figure 2B, read-out: IC50, inhibition of TR-FRET signal (Ser935 phosphorylation)), 30 nM; in experiment [4] (G2019S, +/- SD, three independent experiments, * = partial inhibition, read-out: IC50, TR-FRET cell-based assay for Ser935 phosphorylation of LRRK2) it was 50 nM; in experiment [5], 30 nM. In addition, in experiment [3] (SH-SY5Y, LRRK2-IN-1 positive control used at 10 µM, SH-SY5Y G2019S, read-out: %Inhibition Initial screen (positive control)), the inhibition (commonly the relative decrease from the control value, in per cent) at 10 µM amounted to 100%.
